From paper PMC8234462, “Novel Cyclophilin Inhibitor Decreases Cell Proliferation and Tumor Growth in Models of Hepatocellular Carcinoma” (Cancers, 2021)
One block for each compound: values may come before it.

Assays:
LIXC-006 = test: Cell proliferation assay: Acumen; assay type: cell-based; conditions: Homo sapiens, 168 h, 7 days, read-out: Abs IC50 growth inhibition
Description: (§1) Compound screening and comparison of the antiproliferative effect of NV651 and sorafenib were performed by Shanghai ChemPartner Co., Ltd. (Shanghai, China). Cells were seeded in a 96-well plate at the following concentrations: LIXC-003 400 cells/well, LIXC-004 1000 cells/well, LIXC-086 5000 cells/well, LIXC-066 1250 cells/well, LIXC-012 2000 cells/well, LIXC-006 1250 cells/well, HEPG2 1000 cells/well, HUH7 2000 cells/well and Hep3B2.1-7-Luc 1000 cells/well. Cells were treated with either sorafenib or NV651 at 0.004, 0.011, 0.034, 0.103, 0.309, 0.926, 2.778, 8.333, 25 µM or an equivalent volume with DMSO.
(§2) After 7 days, cells were trypsinized and collected. Fifty microliters of cell suspension were added to 50 µL of 2-µM Calcein AM (Invitrogen, Cat# C3099, Waltham, MA, USA) diluted in HBSS and placed in a black-walled 96-well plate. The plate was left for 30 min at room temperature, followed by a scan with Acumen eX3.
(§3) Growth inhibition for direct cell counting (%) by Acumen was calculated as:(1) 100−100∗Experimental count−Blank/DMSO count −Blank

HEP3B2.1-7-Luc = test: Cell proliferation assay: Acumen; assay type: cell-based; conditions: Homo sapiens, 168 h, 7 days, read-out: Abs IC50 growth inhibition
Description: as §1, §2, §3

LIXC-004 = test: Cell proliferation assay: Acumen; assay type: cell-based; conditions: Homo sapiens, 168 h, 7 days, read-out: Abs IC50 growth inhibition
Description: as §1, §2, §3

LIXC-003 = test: Cell proliferation assay: Acumen; assay type: cell-based; conditions: Homo sapiens, 168 h, 7 days, read-out: Abs IC50 growth inhibition
Description: as §1, §2, §3

LIXC-012 = test: Cell proliferation assay: Acumen; assay type: cell-based; conditions: Homo sapiens, 168 h, 7 days, read-out: Abs IC50 growth inhibition
Description: as §1, §2, §3

HEPG2 = test: Cell proliferation assay: Acumen; assay type: cell-based; conditions: Homo sapiens, 168 h, 7 days, read-out: Abs IC50 growth inhibition
Description: as §1, §2, §3

HUH7 = test: Cell proliferation assay: Acumen; assay type: cell-based; conditions: Homo sapiens, Huh-7, 168 h, 7 days, read-out: Abs IC50 growth inhibition
Description: as §1, §2, §3

LIXC-086 = test: Cell proliferation assay: Acumen; assay type: cell-based; conditions: Homo sapiens, 168 h, 7 days, read-out: Abs IC50 growth inhibition
Description: as §1, §2, §3

LIXC-066 = test: Cell proliferation assay: Acumen; assay type: cell-based; conditions: Homo sapiens, 168 h, 7 days, read-out: Abs IC50 growth inhibition
Description: as §1, §2, §3

Bone marrow progenitors = test: Cytotoxicity, colony formation; assay type: cell-based, human; conditions: 14 days of treatment, colonies counted
Description: The evaluation of the off-target effects of NV651 was performed by ImQuest BioSciences Inc. (Frederick, MD, USA) by analyzing the cytotoxicity in a panel of primary cells. NV651 was evaluated at a concentration of 30 µM and five serial half-logarithmic dilutions in triplicate. The positive control compounds for each cell type were purchased from Sigma-Aldrich (St. Louis, MO, USA) and were as follows: Unstimulated human peripheral blood mononuclear cells (PBMCs), phytohemagglutinin (PHA)-stimulated PBMCs, monocytes/macrophages, dendritic cells, hepatocytes, induced pluripotent stem cell (iPS) neurons: […] AZT, kidney cells (RPTEC): cisplatin and iPS cardiomyocytes: Doxazosin. Bone marrow progenitor cells (Invitrogen, Waltham, MA, USA) were suspended in cell culture medium (Iscove-modified Dulbecco medium) containing 15% FBS, 10% giant tumor-conditioned medium (Bone Marrow Plus, Sigma-Aldrich, St. […] Cells (1 × 10^5 cells/well) were seeded in 6-well plates containing NV651 in triplicate. Cells were incubated for 14 days, and colonies (more than 30 cells) were counted.

Dendritic cells = test: Cytotoxicity, CellTiter Glo; assay type: cell-based; conditions: Homo sapiens, Dendritic cell, 168 h, 7 days of treatment, read-out: IC50 (50% reduction in cell viability)
Description: The evaluation of the off-target effects of NV651 was performed by ImQuest BioSciences Inc. (Frederick, MD, USA) by analyzing the cytotoxicity in a panel of primary cells. NV651 was evaluated at a concentration of 30 µM and five serial half-logarithmic dilutions in triplicate. The positive control compounds for each cell type were purchased from Sigma-Aldrich (St. Louis, MO, USA) and were as follows: Unstimulated human peripheral blood mononuclear cells (PBMCs), phytohemagglutinin (PHA)-stimulated PBMCs, monocytes/macrophages, dendritic cells, hepatocytes, induced pluripotent stem cell (iPS) neurons: […] AZT, kidney cells (RPTEC): cisplatin and iPS cardiomyocytes: Doxazosin. The isolation was based on Nair, Archer. Briefly, freshly separated PBMCs from one donor were suspended in DPBS at 4 × 10^6 cells per mL and cultured in a T-75 flask. Cells were incubated for 30 min and then washed 5–7 times with DPBS to remove nonadherent cells. Cells were cultured in RPMI 1640 supplemented with 10% FBS, 2-mM L-glutamine, 25-mM HEPES, […], 100-µg/mL streptomycin, 50-ng/mL rhGM-CSF and 50-ng/mL rhIL-4 and incubated for 7 days. After the incubation period, cells were cultured in the same media with the addition of LPS (10 ng/mL) for two days. […]

iPS cardiomyocytes = test: Cytotoxicity, CellTiter Glo; assay type: cell-based; conditions: Homo sapiens, Cardiomyocyte, 72 h, 3 days of treatment, read-out: IC50 (50% reduction in cell viability)
Description: The evaluation of the off-target effects of NV651 was performed by ImQuest BioSciences Inc. (Frederick, MD, USA) by analyzing the cytotoxicity in a panel of primary cells. NV651 was evaluated at a concentration of 30 µM and five serial half-logarithmic dilutions in triplicate. The positive control compounds for each cell type were purchased from Sigma-Aldrich (St. Louis, MO, USA) and were as follows: Unstimulated human peripheral blood mononuclear cells (PBMCs), phytohemagglutinin (PHA)-stimulated PBMCs, monocytes/macrophages, dendritic cells, hepatocytes, induced pluripotent stem cell (iPS) neurons: […] AZT, kidney cells (RPTEC): cisplatin and iPS cardiomyocytes: Doxazosin. iPS cardiomyocytes (Cellular Dynamics, Madison, WI, USA) were seeded in a 96-well plate precoated with 0.1% gelatin (Sigma-Aldrich, St. Louis, MO, USA) in a plating medium (Cellular dynamics, Madison, WI, USA) at a concentration of 1.5 × 10^4 cells/well. After 48 h of incubation, cells were washed, and NV651 diluted in the maintenance medium (Cellular Dynamics, Madison, WI, USA) was added. After 3 days of incubation, cell viability was measured with CellTiter Glo (Promega, Madison, WI, USA). CellTiter Glo was performed to evaluate cell viability. CellTiter Glo Luminescent Cell Viability Assay (Promega, Madison, WI, USA) was performed according to the manufacturer’s instructions.

CypD = CypD (Homo sapiens, UniProt P30405); test: PPIase activity assay (chymotrypsin-coupled); assay type: biochemical; conditions: free-cell assay; Cyp equilibrated 1 h at 5 °C with inhibitor; read-out: absolute IC50, PPIase activity CypD
Description: (§4) The PPIase activity of CypA, CypB, CypD and Cyp40 was determined by following the rate of hydrolysis of N-succinyl-Ala-Ala-Pro-Phe-p-nitroanilide by chymotrypsin, a digestive enzyme that only hydrolyzes the trans form of the peptide. Therefore, the hydrolysis of the cis form, the concentration of which is maximized by using a stock dissolved in trifluoroethanol containing 470-mM LiCl, is only possible with the isomerization from the cis to the trans form. […] The reaction was started with the peptide addition, and the change in absorbance was monitored spectrophotometrically at a 6-s interval for 6 min. The blank rates of hydrolysis (in the absence of Cyps) were subtracted from the rates in the presence of Cyps. The initial rates of the enzymatic reaction were analyzed by a first-order regression analysis of the time course of the change in absorbance.

Cyp40 = Cyp40 (Homo sapiens, UniProt Q08752); test: PPIase activity assay (chymotrypsin-coupled); assay type: biochemical; conditions: free-cell assay; Cyp equilibrated 1 h at 5 °C with inhibitor; read-out: absolute IC50, PPIase activity Cyp40
Description: as §4

CypB = CypB (Homo sapiens, UniProt P23284); test: PPIase activity assay (chymotrypsin-coupled); assay type: biochemical
Description: as §4

RPTECs = test: Cytotoxicity, CellTiter Glo; assay type: cell-based, human; conditions: 3 days of treatment, read-out: IC50 (50% reduction in cell viability)
Description: The evaluation of the off-target effects of NV651 was performed by ImQuest BioSciences Inc. (Frederick, MD, USA) by analyzing the cytotoxicity in a panel of primary cells. NV651 was evaluated at a concentration of 30 µM and five serial half-logarithmic dilutions in triplicate. The positive control compounds for each cell type were purchased from Sigma-Aldrich (St. Louis, MO, USA) and were as follows: Unstimulated human peripheral blood mononuclear cells (PBMCs), phytohemagglutinin (PHA)-stimulated PBMCs, monocytes/macrophages, dendritic cells, hepatocytes, induced pluripotent stem cell (iPS) neurons: […] AZT, kidney cells (RPTEC): cisplatin and iPS cardiomyocytes: Doxazosin. Human primary renal proximal tubule cells (hRPTEC, Lonza, Basel, Switzerland) were cultured at 1 × 10^4 cells/well in supplemented REGM medium (Lonza, Basel, Switzerland). Following overnight incubation for adherence, cells were treated with NV651 in triplicate. After a 3-day treatment, CellTiter Glo (Promega, Madison, WI, USA) was used. CellTiter Glo was performed to evaluate cell viability. CellTiter Glo Luminescent Cell Viability Assay (Promega, Madison, WI, USA) was performed according to the manufacturer’s instructions.

Sequence of CypD (P30405 30-207): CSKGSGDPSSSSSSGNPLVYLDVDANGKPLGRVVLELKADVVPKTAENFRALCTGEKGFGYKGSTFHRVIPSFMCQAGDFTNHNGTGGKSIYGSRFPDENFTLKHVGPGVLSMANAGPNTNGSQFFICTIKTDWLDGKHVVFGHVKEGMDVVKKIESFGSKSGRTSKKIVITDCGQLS
Sequence of Cyp40 (Q08752 whole entry): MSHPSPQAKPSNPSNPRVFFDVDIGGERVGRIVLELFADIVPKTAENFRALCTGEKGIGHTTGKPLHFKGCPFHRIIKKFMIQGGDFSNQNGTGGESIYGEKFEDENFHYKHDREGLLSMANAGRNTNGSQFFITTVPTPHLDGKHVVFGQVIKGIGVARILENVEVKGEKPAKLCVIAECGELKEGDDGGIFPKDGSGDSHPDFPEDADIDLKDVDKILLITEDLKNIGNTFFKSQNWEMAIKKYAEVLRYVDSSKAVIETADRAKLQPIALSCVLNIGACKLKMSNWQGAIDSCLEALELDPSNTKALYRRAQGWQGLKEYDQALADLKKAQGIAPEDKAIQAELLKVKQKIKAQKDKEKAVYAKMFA
Sequence of CypB (P23284 34-216): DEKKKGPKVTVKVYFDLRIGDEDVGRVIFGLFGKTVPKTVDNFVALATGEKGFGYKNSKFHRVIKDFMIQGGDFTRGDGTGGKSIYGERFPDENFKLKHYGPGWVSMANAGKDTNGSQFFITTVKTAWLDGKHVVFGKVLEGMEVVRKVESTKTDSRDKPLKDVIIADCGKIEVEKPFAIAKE

IC50 (HEP3B2.1-7-Luc): 3.9 µM | IC50 (HEPG2): 2.33 µM | IC50 (HUH7): 0.739 µM
Structure (SMILES): CNC(=O)c1cc(Oc2ccc(NC(=O)Nc3ccc(Cl)c(C(F)(F)F)c3)cc2)ccn1 [Sorafenib, reference compound]
IC50 (LIXC-006): 3.35 µM | IC50 (LIXC-004): 1.45 µM | IC50 (LIXC-003): 0.003 µM | IC50 (LIXC-012): 1.25 µM | IC50 (LIXC-086): 1.9 µM | IC50 (LIXC-066): 1.65 µM

Structure (SMILES): Cc1cn([C@H]2C[C@H](N=[N+]=[N-])[C@@H](CO)O2)c(=O)[nH]c1=O [AZT, reference compound]
IC50 (Bone marrow progenitors): 0.89 µM

Structure (SMILES): CN[C@@H]1C[C@H]2O[C@@](C)([C@@H]1OC)n1c3ccccc3c3c4c(c5c6ccccc6n2c5c31)C(=O)NC4 [Staurosporine, reference compound]
IC50 (Dendritic cells): 0.009 µM

Structure (SMILES): COc1cc2nc(N3CCN(C(=O)C4COc5ccccc5O4)CC3)nc(N)c2cc1OC (stereo not shown) [doxazosin, reference compound]
IC50 (iPS cardiomyocytes): 39.8 µM

IC50 (CypD): 0.00525 µM | IC50 (Cyp40): 0.00562 µM | IC50 (CypB): 0.00512 µM
Structure (SMILES): CC[C@H]1C[C@H](C)[C@@]2(NC1=O)O[C@@H](C[C@H](O)[C@@H](C)CC/C=C/C=C(\C)[C@@H]1C/C=C/C=C/[C@H](O)[C@H](C)[C@@H](O)[C@@H](CCC(C)=O)C(=O)N[C@@H](C(C)C)C(=O)N[C@@H](Cc3cccc(O)c3)C(=O)N3CCC[C@H](N3)C(=O)O1)[C@H](C)[C@H](O)[C@@H]2C [SfA, Sanglifehrin A, reference compound]

Structure (SMILES): N.N.[Cl][Pt][Cl] [cisplatin, reference compound]
IC50 (RPTECs): 0.009 µM
